Test results as given in US20230203098A1, “HUMAN TRANSFERRIN RECEPTOR BINDING PEPTIDE” (priority 2020, published 2023).
Like-named read-outs stand apart in the source and are kept apart here. Each block holds one compound with its values, some of them ahead of it. Where a SMILES comes first, the peptide text is derived from it. Bridges are numbered along the chain shown (N, C = ends). [ ]: non-standard residue; d: D form. PEG12 = NCCOCCOCCOCCOCCOCCOCCOCCOCCOCCOCCOCCOCCC(=O)O; Phe(3,4-(OMe)2) = COc1ccc(C[C@H](N)C(=O)O)cc1OC; NMePhe(3-Cl) = CN[C@@H](Cc1cccc(Cl)c1)C(=O)O; NMeW = CN[C@@H](Cc1c[nH]c2ccccc12)C(=O)O; NMeY = CN[C@@H](Cc1ccc(O)cc1)C(=O)O; NMeF = CN[C@@H](Cc1ccccc1)C(=O)O; Ahp(2) = CCCCC[C@H](N)C(=O)O; PEG4 = NCCOCCOCCOCCOCCC(=O)O; Abu = CC[C@H](N)C(=O)O

Target: transferrin receptor (hTfR) (Homo sapiens, UniProt P02786)
Assay: Intermolecular interaction evaluation test between transferrin receptor (hTfR) and peptide by surface plasmon resonance (SPR)
Assay type: binding
Summary of the method: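 Receptor was Ni-captured and EDC/NHS-fixed on an NTA chip; running buffer HEPES pH 8.0 with NaCl, Tween 20, BSA and 1.0% DMSO.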

[1] = SPR, hTfR No. 894 variants with PEG12c linker (Table 2), read-out: KD
[2] = surface plasmon resonance, peptide vs hTfR, read-out: KD value, hTfR binding by SPR (class symbol)
[3] = surface plasmon resonance, hTfR, read-out: KD value for hTfR by SPR (class symbol)

transferrin receptor (hTfR), sequence (P02786 whole entry): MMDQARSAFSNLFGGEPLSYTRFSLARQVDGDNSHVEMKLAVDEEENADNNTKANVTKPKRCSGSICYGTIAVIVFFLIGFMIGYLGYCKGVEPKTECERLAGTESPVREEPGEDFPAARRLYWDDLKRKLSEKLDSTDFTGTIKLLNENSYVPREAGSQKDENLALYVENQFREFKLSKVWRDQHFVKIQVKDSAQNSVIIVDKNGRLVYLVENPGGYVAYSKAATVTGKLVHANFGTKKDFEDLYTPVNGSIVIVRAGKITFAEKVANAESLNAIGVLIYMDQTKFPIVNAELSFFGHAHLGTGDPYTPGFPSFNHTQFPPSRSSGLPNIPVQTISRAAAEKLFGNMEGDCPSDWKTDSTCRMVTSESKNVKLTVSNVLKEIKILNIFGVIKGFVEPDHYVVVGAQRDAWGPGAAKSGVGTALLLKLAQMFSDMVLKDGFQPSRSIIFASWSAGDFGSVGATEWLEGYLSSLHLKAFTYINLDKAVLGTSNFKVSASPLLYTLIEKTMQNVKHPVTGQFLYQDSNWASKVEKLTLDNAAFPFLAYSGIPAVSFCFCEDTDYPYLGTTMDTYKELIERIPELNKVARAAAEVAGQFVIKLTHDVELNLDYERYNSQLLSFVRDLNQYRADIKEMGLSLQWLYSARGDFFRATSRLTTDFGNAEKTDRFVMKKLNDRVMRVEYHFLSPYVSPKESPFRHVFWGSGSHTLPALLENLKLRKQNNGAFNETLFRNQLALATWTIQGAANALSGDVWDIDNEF

Kd [1]: 1 to 100 nM
Compound: CCCCC[C@@H]1NC(=O)[C@H](Cc2ccc(O)cc2)NC(=O)[C@H](CC(N)=O)NC(=O)[C@H](Cc2c[nH]c3ccccc23)NC(=O)[C@H](C(C)C)NC(=O)[C@H](Cc2ccccc2)N(C)C(=O)[C@H](C(C)C)NC(=O)[C@H](C)NC(=O)CSC[C@@H](C(=O)NCCOCCOCCOCCOCCOCCOCCOCCOCCOCCOCCOCCOCCC(N)=O)NC(=O)[C@H](Cc2ccc(O)cc2)N(C)C(=O)[C@H](Cc2ccc(O)cc2)NC(=O)[C@H](CCCNC(=N)N)NC(=O)[C@H](CCCNC(=N)N)NC(=O)[C@H]([C@@H](C)CC)NC(=O)[C@H]([C@@H](C)CC)NC1=O [compound 139] ({CH2CO}-AV[NMeF]VWNY[Ahp(2)]IIRRY[NMeY]C[PEG12]-NH2; thioether N-15)

Kd (SPR, peptides, linker-added peptides and FITC conjugates, Patent ID 203-230, read-out: KD): 1 to 100 nM
Compound: CC[C@H](C)[C@@H]1NC(=O)[C@H](Cc2ccc(O)cc2)NC(=O)[C@H](Cc2ccc(O)cc2)NC(=O)[C@H](CC(N)=O)NC(=O)[C@H](Cc2c[nH]c3ccccc23)NC(=O)[C@H](C(C)C)NC(=O)[C@H](Cc2ccccc2)NC(=O)[C@H](C(C)C)NC(=O)[C@H](CCC(=O)O)NC(=O)CSC[C@@H](C(=O)NCCOCCOCCOCCOCCOCCOCCOCCOCCOCCOCCOCCOCCC(=O)NN)NC(=O)[C@H](Cc2ccc(O)cc2)N(C)C(=O)[C@H](Cc2ccc(O)cc2)NC(=O)[C@H](CCCNC(=N)N)NC(=O)[C@H](CCCNC(=N)N)NC(=O)[C@H]([C@@H](C)CC)NC1=O [compound 218]

Kd (binding to hTfR by SPR, Table 2 peptides, read-out: KD value (SPR) class): 1 to 100 nM
Compound: CC[C@@H]1NC(=O)[C@H](C)NC(=O)CSC[C@@H](C(=O)NCCOCCOCCOCCOCCC(N)=O)NC(=O)[C@H](Cc2ccc(O)cc2)N(C)C(=O)[C@H](Cc2ccccc2)NC(=O)[C@@H](CCCNC(=N)N)NC(=O)[C@H](CCCNC(=N)N)NC(=O)[C@H]([C@@H](C)CC)NC(=O)[C@H]([C@@H](C)CC)NC(=O)[C@H](Cc2ccc(OC)cc2)NC(=O)[C@H](Cc2ccc(O)cc2)NC(=O)[C@H](CC(N)=O)NC(=O)[C@H](Cc2c[nH]c3ccccc23)N(C)C(=O)[C@H](C(C)C)NC(=O)[C@H](Cc2cccc(Cl)c2)N(C)C1=O [compound 243] ({CH2CO}-A[Abu][NMePhe(3-Cl)]V[NMeW]NYY(Me)IIR[dR]F[NMeY]C[PEG4]-NH2; thioether N-15)

Kd [2]: 1 to 100 nM
Compound: CC[C@H](C)[C@@H]1NC(=O)[C@H](Cc2ccc(OC)c(OC)c2)NC(=O)[C@H](Cc2ccc(O)cc2)NC(=O)[C@H](CC(N)=O)NC(=O)[C@H](Cc2c[nH]c3ccccc23)N(C)C(=O)[C@H](C(C)C)NC(=O)[C@H](Cc2cccc(Cl)c2)N(C)C(=O)[C@H](C(C)C)NC(=O)[C@H](C)NC(=O)CSC[C@@H](C(N)=O)NC(=O)[C@H](Cc2ccc(O)cc2)N(C)C(=O)[C@H](Cc2ccccc2)NC(=O)[C@@H](CCCNC(=N)N)NC(=O)[C@H](CCCNC(=N)N)NC(=O)[C@H]([C@@H](C)CC)NC1=O [compound 318] ({CH2CO}-AV[NMePhe(3-Cl)]V[NMeW]NY[Phe(3,4-(OMe)2)]IIR[dR]F[NMeY]C-NH2; thioether N-15)

Kd (surface plasmon resonance, peptide vs hTfR, read-out: KD value for hTfR by SPR (class symbol)): 100 to 1000 nM
Compound: CC[C@H](C)[C@@H]1NC(=O)[C@@H]2CCCCNC(=O)[C@H]3CCCN3C(=O)CC[C@H](NC(=O)[C@H](C(C)C)NC(=O)[C@H](C)NC(=O)CSC[C@@H](C(N)=O)NC(=O)[C@H](Cc3ccc(O)cc3)N(C)C(=O)[C@H](Cc3ccc(O)cc3)NC(=O)[C@H](CCCNC(=N)N)NC(=O)[C@H](CCCNC(=N)N)NC(=O)[C@H]([C@@H](C)CC)NC1=O)C(=O)N[C@@H](C(C)C)C(=O)N(C)[C@@H](Cc1c[nH]c3ccccc13)C(=O)N[C@@H](CC(N)=O)C(=O)N[C@@H](Cc1ccc(O)cc1)C(=O)N2 [compound 413] ({CH2CO}-AVEV[NMeW]NYKIIRRY[NMeY]C-NH2; linker 3-8 via dP; thioether N-15)

The remaining lines, values behind:

Compound: CC[C@H](C)[C@@H]1NC(=O)[C@H](Cc2ccc(OC)cc2)NC(=O)[C@H](Cc2ccc(O)cc2)NC(=O)[C@H](CC(N)=O)NC(=O)[C@H](Cc2c[nH]c3ccccc23)N(C)C(=O)[C@H](C(C)C)NC(=O)[C@H](Cc2cccc(Cl)c2)N(C)C(=O)[C@H](C(C)C)NC(=O)[C@H](C)NC(=O)CSC[C@@H](C(=O)NCC(=O)NCC(=O)NCC(=O)NCC(=O)N[C@@H](CO)C(=O)N[C@@H](CO)C(=O)N[C@@H](CS)C(N)=O)NC(=O)[C@H](Cc2ccc(O)cc2)N(C)C(=O)[C@H](Cc2ccccc2)NC(=O)[C@@H](CCCNC(=N)N)NC(=O)[C@H](CCCNC(=N)N)NC(=O)[C@H](CCCCN)NC1=O [compound 344]
Kd [2]: 1 to 100 nM

Compound: CC[C@H](C)[C@@H]1NC(=O)[C@H](Cc2ccc(OC)cc2)NC(=O)[C@H](Cc2ccc(O)cc2)NC(=O)[C@H](CC(N)=O)NC(=O)[C@H](Cc2c[nH]c3ccccc23)N(C)C(=O)[C@H](C(C)C)NC(=O)[C@H](Cc2cccc(Cl)c2)N(C)C(=O)[C@H](C(C)C)NC(=O)[C@H](C)NC(=O)CSC[C@@H](C(N)=O)NC(=O)[C@H](Cc2ccc(O)cc2)N(C)C(=O)[C@H](Cc2cccc(OC)c2)NC(=O)[C@@H](CCCNC(=N)N)NC(=O)[C@H](CCCNC(=N)N)NC(=O)[C@H]([C@@H](C)CC)NC1=O [compound 394]
Kd [3]: 1 to 100 nM

Compound: CC[C@H](C)[C@@H]1NC(=O)[C@H](Cc2ccc(OC)cc2)NC(=O)[C@H](Cc2ccc(O)cc2)NC(=O)[C@H](CC(N)=O)NC(=O)[C@H](Cc2c[nH]c3ccccc23)N(C)C(=O)[C@H](C(C)C)NC(=O)[C@H](Cc2cccc(Cl)c2)N(C)C(=O)[C@H](C(C)C)NC(=O)[C@H](C)NC(=O)CSC[C@@H](C(N)=O)NC(=O)[C@H](Cc2ccc(O)cc2)N(C)C(=O)[C@H](Cc2cccc(C(=O)O)c2)NC(=O)[C@@H](CCCNC(=N)N)NC(=O)[C@H](CCCNC(=N)N)NC(=O)[C@H]([C@@H](C)CC)NC1=O [compound 461]
Kd (SPR, hTfR, class symbols A-D, read-out: KD): 1 to 100 nM

Compound: CC[C@H](C)[C@@H]1NC(=O)[C@H](Cc2ccc(OC)cc2)NC(=O)[C@H](Cc2ccc(O)cc2)NC(=O)[C@H](CC(N)=O)NC(=O)[C@H](Cc2c[nH]c3ccccc23)N(C)C(=O)[C@H](C(C)C)NC(=O)[C@H](Cc2cccc(Cl)c2)N(C)C(=O)[C@H](C(C)C)NC(=O)[C@H](C)NC(=O)CSC[C@@H](C(=O)NCCOCCOCCOCCOCCC(N)=O)NC(=O)[C@H](Cc2ccc(O)cc2)N(C)C(=O)[C@H](Cc2ccccc2)NC(=O)[C@@H](CCCNC(=N)N)NC(=O)[C@H](CCCNC(=N)N)NC(=O)[C@H]([C@H](C)O)NC1=O [compound 332]
Kd [2]: 1 to 100 nM

Compound: CC[C@H](C)[C@@H]1NC(=O)[C@H](Cc2ccc(OC)cc2)NC(=O)[C@H](Cc2ccc(O)cc2)NC(=O)[C@H](CC(N)=O)NC(=O)[C@H](Cc2c[nH]c3ccccc23)N(C)C(=O)[C@H](C(C)C)NC(=O)[C@H](Cc2cccc(Cl)c2)N(C)C(=O)[C@H](C(C)C)NC(=O)[C@H](C)NC(=O)CSC[C@@H](C(N)=O)NC(=O)[C@H](Cc2ccc(O)cc2)N(C)C(=O)[C@H](CCC(=O)NCCOCCOCCOCCOCCOCCOCCOCCOC)NC(=O)[C@@H](CCCNC(=N)N)NC(=O)[C@H](CCCNC(=N)N)NC(=O)[C@H]([C@@H](C)CC)NC1=O [compound 389]
Kd [3]: < 1 nM

Compound: CC[C@H](C)[C@@H]1NC(=O)[C@H](Cc2ccc(OC)cc2)NC(=O)[C@H](Cc2ccc(O)cc2)NC(=O)[C@H](CC(N)=O)NC(=O)[C@H](Cc2c[nH]c3ccccc23)N(C)C(=O)[C@H](C(C)C)NC(=O)[C@H](Cc2cccc(Cl)c2)N(C)C(=O)[C@H](C(C)C)NC(=O)[C@H](C)NC(=O)CSC[C@@H](C(=O)NCC(=O)NCC(=O)NCC(=O)NCC(=O)N[C@@H](CO)C(=O)N[C@@H](CO)C(=O)N[C@@H](CS)C(N)=O)NC(=O)[C@H](Cc2ccc(O)cc2)N(C)C(=O)[C@H](Cc2ccccc2)NC(=O)[C@@H](CCCNC(=N)N)NC(=O)[C@H](CN)NC(=O)[C@H]([C@@H](C)CC)NC1=O [compound 367]
Kd: 1 to 100 nM

Compound: CC[C@H](C)[C@@H]1NC(=O)[C@H](Cc2ccc(O)cc2)NC(=O)[C@H](Cc2ccc(O)cc2)NC(=O)[C@H](CC(N)=O)NC(=O)[C@H](Cc2c[nH]c3ccc(Cl)cc23)NC(=O)[C@H](C(C)C)NC(=O)[C@H](Cc2ccc(F)cc2)N(C)C(=O)[C@H](C(C)C)NC(=O)[C@H](C)NC(=O)CSC[C@@H](C(N)=O)NC(=O)[C@H](Cc2ccc(O)cc2)N(C)C(=O)[C@H](Cc2ccccc2)NC(=O)[C@H](CCCCNC(=O)CCOCCOCCOCCOC)NC(=O)[C@H](CCCNC(=N)N)N(C)C(=O)[C@H]([C@@H](C)CC)NC1=O [compound 489]
Kd (SPR, hTfR, class symbols A-D, read-out: KD (column without head, continuation of the table series)): 100 to 1000 nM

Compound: CC[C@H](C)[C@@H]1NC(=O)[C@H](Cc2ccc(OC)cc2)NC(=O)[C@H](Cc2ccc(O)cc2)NC(=O)[C@H](CC(N)=O)NC(=O)[C@H](Cc2c[nH]c3ccccc23)N(C)C(=O)[C@H](C(C)C)NC(=O)[C@H](Cc2cccc(Cl)c2)N(C)C(=O)[C@H](C(C)C)NC(=O)[C@H](C)NC(=O)CSC[C@@H](C(N)=O)NC(=O)[C@H](Cc2ccc(O)cc2)N(C)C(=O)[C@H](Cc2ccccc2)NC(=O)[C@@H](CCCNC(=N)N)NC(=O)[C@H](CCCNC(=N)N)NC(=O)[C@H]([C@@H](C)CC)NC1=O [compound 397]
Kd [3]: 1 to 100 nM

Compound: CC[C@H](C)[C@@H]1NC(=O)[C@H]([C@@H](C)CC)NC(=O)[C@H](Cc2ccc(O)cc2)N(C)C(=O)[C@H](Cc2ccc(O)cc2)NC(=O)[C@H](CC(N)=O)NC(=O)[C@H](Cc2c[nH]c3ccccc23)NC(=O)[C@H](C(C)C)NC(=O)[C@H](Cc2ccccc2)N(C)C(=O)[C@H](C(C)C)NC(=O)[C@H](C)NC(=O)CSC[C@@H](C(=O)NCCOCCOCCOCCOCCOCCOCCOCCOCCOCCOCCOCCOCCC(N)=O)NC(=O)[C@H](Cc2ccc(O)cc2)N(C)C(=O)[C@H](Cc2ccc(O)cc2)NC(=O)[C@H](CCCNC(=N)N)NC(=O)[C@H](CCCNC(=N)N)NC1=O [compound 120]
Kd [1]: 1 to 100 nM
